Assay results as given in patent US20120289472A1, “MOLECULES CAPABLE OF INDUCING CELL DEATH BY TARGETING THE MITOCHONDRIA AND APPLICATIONS THEREOF” (priority 2009, published 2012).
Read-outs that look alike come from different tables or passages of the source. Where a SMILES comes first, the peptide text is derived from it. Where no end group is shown, it is not given here. The star is where a group is joined. Cbz = O=C(OCc1ccccc1)*; CH2F = FC*

Tests used:
[1] = tested on: MEF-DKO murine fibroblasts; assay: Apoptosis of wild-type MEF and Bax/Bak-deficient MEF-DKO fibroblasts (Annexin V-Cy3, flow cytometry); assay type: cell-based
Excerpt: The graph (FIG. 6A) corresponds to a time course of cell death (quantified by flow cytometry by means of the Annexin V-Cy3 test) of MEF wild-type murine fibro-blasts compared with MEF-DKO murine fibroblasts.

HT-1080 cells = assay: Cell death of HT-1080 cells expressing GFP fused to Bax membrane insertion fragments; assay type: cell-based, human; conditions: zVAD.fmk 100 μM
Description: The various constructs were transfected into human cells cultured in vitro (HT-1080 and SK-MEL-28), and then the subcellular localization and the cytotoxicity induced by the Bax membrane insertion fragments fused to GFP were determined.
FIG. 5A gives the death rate (apoptosis/necrosis) of HT-1080 cells expressing GFP alone or as a fusion with various membrane insertion fragments of the Bax death protein. The cells were treated (+) or not (−) with the general caspase inhibitor zVAD.fmk (100 μM). Cell death was quantified 24 h after transfection by counting the number of green cells (expressing GFP) under an epifluorescence microscope. The type of cell death (apoptosis and necrosis) was determined through the membrane permeability to propidium iodide (necrosis) and the nuclear morphology (condensed or fragmented nuclei) after staining with Hoechst 33342 (apoptosis). […] The results represent the mean values (with the standard deviations) of the three experiments.
In this experiment, the cell death was quantified using the Annexin-V-Cyanine 3 test by flow cytometry 24 h after transient transfection of the cells with the plasmids of interest.

HeLa cells [2] = assay: Cytotoxicity in HeLa cells by LDH release; assay type: cell-based
Description: (A) HeLa cells were incubated for 6 h in the presence of 10 μM of poropeptide FITC-R8-Bax or of control peptide R8-Bax [Scr] (“scramble” version of the poropeptide), and then observed under an epifluorescence microscope. […] Scale 10 μm. […] HeLa cells were treated with increasing concentrations (5, 10, 25 and 50 μM) of peptide […] or […]. The cytotoxicity was determined by measuring the cellular release of lactate dehydrogenase (LDH) after 3, 6 or 24 h of incubation (n=4). […] The results are given in means and standard deviations. […] (25 μM). The cytotoxicity was determined by measuring the cellular release of lactate dehydrogenase (LDH) after 3, 6 or 24 h of incubation in the presence of 100 μM of zVAD.fmk or of buffer alone (‘DMSO’). The results are given as means and standard deviations. (D) Death rate (apoptosis/necrosis) of HeLa cells treated with poropeptide R8-Bax. The type of cell death was determined 24 h after transfection by observation of cell permeability to propidium iodide (necrosis) or of nuclear morphology after DNA staining with Hoechst 33342 (apoptosis). The green cells (expressing GFP) were visualized by epifluorescence microscopy. Approximately 300 cells were counted per experiment. The results are a mean of three independent experiments (the standard deviation is also represented).

isolated mitochondria = assay: Cytochrome c release from isolated mitochondria (Western blotting of supernatant); assay type: biochemical; conditions: for incubation time at which cytochrome c is released: 10 μM
Description: The ex cellulo activity of poropeptide-Bax (106-134) was tested by determining its ability to promote the release of cytochrome c from the intermembrane space of isolated mitochondria. The results obtained are shown by FIG. 9 (A).
The peptide is incubated with the mitochondria for 5, 15, 30 or 60 min, and the mitochondrial release of cytochrome c into the supernatant (SN) is measured by Western blotting. The mitochondrial fractions (Mito) are calibrated using an antibody directed against the HSP70 or ATPase (subunit 6) mitochondrial proteins. With poropeptide-Bax (106-134), cytochrome c is released from the intermembrane space of the mitochondrion at 10 μM and in 5 min of incubation. No release is observed when an artificial antimicrobial peptide (KLAK) of sequence SEQ ID No. 2 KLAKLAKKLAKLAK is used.

[3] = tested on: mitochondria isolated from rat liver; assay: Swelling and depolarization of mitochondria isolated from rat liver; assay type: biochemical
Description: Poropeptide-Bax (106-134) induces swelling of the mitochondria (DD50=1.68±0.39 μM) and a drop in their transmembrane potential (SD50=3.98±0.57 μM). These two parameters were measured using mitochondria isolated from rat liver, incubated in the presence of various concentrations of poropeptide-Bax (106-134) (NT=not treated).

Zebrafish eggs = assay: Microinjection into zebrafish eggs (mortality, malformations); assay type: in vivo, Danio rerio
Excerpt: Poropeptide-Bax was microinjected in vivo. The zebrafish (Danio rerio) model was used because (i) the apoptotic machinery is conserved between human cells and fish cells; (ii) the egg corresponds to an integrated cell system compared with isolated mitochondria; (iii) zebrafish eggs can be easily injected routinely.
(A) Zebrafish eggs were microinjected at the 1-2 cell(s) stage with increasing concentrations of poro-peptide-Bax, of Bax-BH3 peptide or with ultrapure water ('mock'). A concentration of 100 μM inside the microinjection capillary corresponds to approximately […] molecules of peptide per egg. […] The data shown are representative of 2 independent experiments giving the same results. (B) Embryonic morphology 24 h after microinjection (100 μM of peptide).

[4] = tested on: SK-MEL-28 human melanoma cells; assay: Cell viability after microinjection into SK-MEL-28 melanoma cells; assay type: cell-based; conditions: SK-MEL-28, 12 h after microinjection; for cell death / viability after microinjection: versus control
Description: Poropeptide-Bax was then mixed with a solution of dextran-fluorescein (so as to allow its visualization by epifluorescence microscopy), and then microinjected into SK-MEL-28 human melanoma cells. Cell viability was then monitored and quantified 12 hours after microinjection.
(A) Micrographs showing SK-MEL-28 human melanoma cells injected with Dextran-FITC fluorescent tracer alone (‘mock’) or mixed with poropeptide-Bax. The cells were photographed 12 h after microinjection. […] Magnification×800. (B) Cell viability after microinjection of poropeptide-Bax or of Bax-BH3, KLAK or R8 peptide. The cells microinjected were visualized by means of the Dextran-FITC tracer. […] The data shown are representative of 2 independent experiments giving the same results.

HeLa cells [5] = assay: Internalization of fluorescent peptides by HeLa cells (epifluorescence microscopy); assay type: cell-based
Description: The poropeptide of sequence SEQ ID No. 1, comprising a polyarginine N-terminal extension (R8) separated by a glycine residue, was used. A fluorescein isothiocyanate (FITC) group was added in the C-terminal position so as to allow its visualization by epifluorescence microscopy. The R8-Scr-FITC peptide is a “scramble” sequence of the sequence present in the R8-Bax [106-134]-FITC peptide, i.e. a control sequence in which the amino acids (their order in the sequence) have been mixed-up.
(A) HeLa cells were incubated for 6 h in the presence of 10 μM of poropeptide FITC-R8-Bax or of control peptide R8-Bax [Scr] (“scramble” version of the poropeptide), and then observed under an epifluorescence microscope. […] Scale 10 μm. […] The cytotoxicity was determined by measuring the cellular release of lactate dehydrogenase (LDH) after 3, 6 or 24 h of incubation (n=4). […] The cytotoxicity was determined by measuring the cellular release of lactate dehydrogenase (LDH) after 3, 6 or 24 h of incubation in the presence of 100 μM of zVAD.fmk or of buffer alone (‘DMSO’). […] The type of cell death was determined 24 h after transfection by observation of cell permeability to propidium iodide (necrosis) or of nuclear morphology after DNA staining with Hoechst 33342 (apoptosis). […] Approximately 300 cells were counted per experiment. […]

CN[C@@H]1C[C@H]2O[C@@](C)([C@@H]1OC)n1c3ccccc3c3c4c(c5c6ccccc6n2c5c31)C(=O)NC4 [staurosporine]
apoptosis induced in MEF-DKO cells [1]: resistant

COC(=O)C[C@H](NC(=O)[C@H](C)NC(=O)[C@@H](NC(=O)OCc1ccccc1)C(C)C)C(=O)CF [zVAD.fmk, reference compound] (Cbz-Val-Ala-Asp(OMe)-CH2F)
effect of caspase inhibitor on apoptosis caused by Bax membrane insertion fragments (HT-1080 cells): blocking of the apoptosis
effect of caspase inhibitor on cell death induced by poropeptide R8-Bax [106-134] (LDH release) (HeLa cells [2]; HeLa, zVAD.fmk 100 μM, poropeptide 25 μM, 3, 6 or 24 h): reduces cell death

H-NWGRVVALFYFASKLVLKALSTKVPELIR-OH [poropeptide-Bax (106-134)]
minimum concentration for which cytochrome c release is observed (isolated mitochondria): 10 µM
incubation time at which cytochrome c is released (isolated mitochondria): 5 min
incubation time at which cytochrome c is released (isolated mitochondria; listed as Poropeptide-Bax (106-134)): ≤ 5 min
EC50 ([3]; read-out: drop in transmembrane potential (SD50)): 3980 ± 570 nM
EC50 ([3]; read-out: swelling of the mitochondria (DD50)): 1680 ± 390 nM
embryonic morphology (Zebrafish eggs; 24 h after microinjection, 100 μM of peptide, compared with BH3 peptide group): Severe malformations
cytotoxic effects after introduction into zebrafish eggs (Zebrafish eggs; increasing concentrations, microinjection at 1-2 cell stage): dose-dependent cytotoxic effects
cell morphology after microinjection [4]: characteristic morphological manifestations of apoptosis
cell death / viability after microinjection [4]: substantial cell death

KLAKLAKKLAKLAK [artificial antimicrobial peptide, reference compound]
cytochrome c release from intermembrane space (isolated mitochondria; incubation 5-60 min): No release
cell death / viability after microinjection [4]: no significant effect

R8-Bax [106-134]: poropeptide of SEQ ID No. 1 with polyarginine N-terminal extension (R8) separated by a glycine residue, FITC group added (RRRRRRRRGNWGRVVALFYFASKLVLKALCTKVPELIR; also: FITC group added, position not given here; UniProt Q07812 106-134, looked up, fragment)
time to internalization (HeLa cells [5]; HeLa cells in culture in vitro): in less than one hour
cytoplasmic labeling of cells (HeLa cells [5]; HeLa, 10 μM, 6 h): strong cytoplasmic labeling
cytotoxicity by cellular release of lactate dehydrogenase (LDH) (HeLa cells [2]; HeLa, 5, 10, 25 and 50 μM, 3, 6 or 24 h): loss of cell viability which is dose-dependent and incubation time-dependent

RRRRRRRR [R8, control peptide, a polyarginine intracellular transduction motif, reference compound]
cell death / viability after microinjection [4]: viability rates comparable to the control
